Experimental findings from patent US7655629B2, “Peptides and their use for the treatment of HIV infections” (priority 2002, dated 2010) are described below.

Non-standard residues stand in square brackets, D forms with d. Residues, ends and D or L forms follow the SMILES beside them. Phe(4-F) = N[C@@H](Cc1ccc(F)cc1)C(=O)O; 1Nal = N[C@@H](Cc1cccc2ccccc12)C(=O)O; Bta = N[C@@H](Cc1csc2ccccc12)C(=O)O; 4Pal = N[C@@H](Cc1ccncc1)C(=O)O; Tic = O=C(O)[C@@H]1Cc2ccccc2CN1; 3Thi = N[C@@H](Cc1ccsc1)C(=O)O; Cha = N[C@@H](CC1CCCCC1)C(=O)O

One assay deals with X4-tropic HIV-1 NL4-3. The note with it: read-out: IC50 NL4-3; P4-CCR5 cells, HIV-1 NL4-3, peptide 2 h before infection, readout three days after infection. The method, boiled down: (§1)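 P4-CCR5 cells (CD4, CCR5, CXCR4, HIV-1 promoter-driven β-galactosidase) pretreated 2 h with peptide, then infected with virus containing 1 ng p24 antigen and incubated overnight. Cells washed and cultured without peptide; three days post-infection infectivity read by chemiluminescent β-galactosidase assay, in quintuplicate.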

The subject of a further assay is HIV-1 NL4-3 DTV. The note with it: read-out: IC50 DTV, P4-CCR5 cells, peptide 2 h before infection, readout three days after infection. In short, it runs like this: as §1

As for `CC[C@H](C)[C@H](NC(=O)[C@H](C)NC(=O)[C@H](CCC(=O)O)NC(=O)[C@@H](N)CC(C)C)C(=O)N1CCC[C@H]1C(=O)N[C@@H](CCSC)C(=O)N[C@@H](CO)C(=O)N[C@H](C(=O)N1CCC[C@H]1C(=O)N1CCC[C@@H]1C(=O)N[C@@H](CCC(=O)O)C(=O)N[C@@H](Cc1ccccc1)C(=O)N[C@@H](CC(C)C)C(=O)N[C@@H](Cc1ccccc1)C(=O)N[C@@H](CC(N)=O)C(=O)N[C@@H](CCCCN)C(=O)N1CCC[C@H]1C(=O)N[C@@H](Cc1ccccc1)C(=O)N[C@H](C(=O)N[C@@H](Cc1ccccc1)C(=O)O)C(C)C)[C@@H](C)CC` [VIR-199, LEAIPMSIPpEFLFNKPFVF] (H-LEAIPMSIP[dP]EFLFNKPFVF-OH), the IC50 (in general, the concentration needed to halve the response being measured) in the assay with X4-tropic HIV-1 NL4-3 came out at 2140 nM; in the assay on HIV-1 NL4-3 DTV, 1650 nM.
Taken in the same sequence, the figures for `CC[C@H](C)[C@H](NC(=O)[C@@H]1CCCN1C(=O)[C@@H](NC(=O)[C@H](C)NC(=O)[C@H](CCC(=O)O)NC(=O)[C@@H](N)CC(C)C)[C@@H](C)CC)C(=O)N[C@@H](CO)C(=O)N[C@H](C(=O)N1CCC[C@H]1C(=O)N1CCC[C@@H]1C(=O)N[C@@H](CCC(=O)O)C(=O)N[C@H](C(=O)N[C@@H](C)C(=O)N[C@@H](Cc1ccccc1)C(=O)N[C@@H](CC(N)=O)C(=O)N[C@@H](CCCCN)C(=O)N1CCC[C@H]1C(=O)N[C@@H](Cc1ccccc1)C(=O)N[C@H](C(=O)N[C@@H](Cc1ccccc1)C(=O)O)C(C)C)C(C)C)[C@@H](C)CC` [VIR-229, LEAIPISIPpEVAFNKPFVF] (H-LEAIPISIP[dP]EVAFNKPFVF-OH) were 1280 nM and 2260 nM.
Consider `CC[C@H](C)[C@H](NC(=O)[C@H](CC(=O)O)NC(=O)[C@H](CCC(=O)O)NC(=O)[C@@H](N)CC(C)C)C(=O)N1CCC[C@H]1C(=O)N[C@@H](CCSC)C(=O)N[C@@H](CO)C(=O)N[C@H](C(=O)N1CCC[C@H]1C(=O)N1CCC[C@@H]1C(=O)N[C@@H](CCC(=O)O)C(=O)N[C@H](C(=O)N[C@@H](C)C(=O)N[C@@H](Cc1ccccc1)C(=O)N[C@@H](CC(N)=O)C(=O)N[C@@H](CCCCN)C(=O)N1CCC[C@H]1C(=O)N[C@@H](Cc1ccccc1)C(=O)N[C@H](C(=O)N[C@@H](Cc1ccccc1)C(=O)O)C(C)C)C(C)C)[C@@H](C)CC` [VIR-252, LEDIPMSIPpEVAFNKPFVF] (H-LEDIPMSIP[dP]EVAFNKPFVF-OH), for which the IC50 with X4-tropic HIV-1 NL4-3 was 1750 nM; in the assay on HIV-1 NL4-3 DTV, 1870 nM.
On to `CC[C@H](C)[C@H](NC(=O)[C@H](CCCCN)NC(=O)[C@H](CCC(=O)O)NC(=O)[C@@H](N)CC(C)C)C(=O)N1CCC[C@H]1C(=O)N[C@@H](CCSC)C(=O)N[C@@H](CO)C(=O)N[C@H](C(=O)N1CCC[C@H]1C(=O)N1CCC[C@@H]1C(=O)N[C@@H](CCC(=O)O)C(=O)N[C@H](C(=O)N[C@@H](C)C(=O)N[C@@H](Cc1ccccc1)C(=O)N[C@@H](CC(N)=O)C(=O)N[C@@H](CCCCN)C(=O)N1CCC[C@H]1C(=O)N[C@@H](Cc1ccccc1)C(=O)N[C@H](C(=O)N[C@@H](Cc1ccccc1)C(=O)O)C(C)C)C(C)C)[C@@H](C)CC` [VIR-255, LEKIPMSIPpEVAFNKPFVF] (H-LEKIPMSIP[dP]EVAFNKPFVF-OH), for which the IC50 with X4-tropic HIV-1 NL4-3 was found to be 650 nM; in the assay with HIV-1 NL4-3 DTV it was 1230 nM.
For the molecule `CC[C@H](C)[C@H](NC(=O)[C@H](C)NC(=O)[C@H](CCC(=O)O)NC(=O)[C@@H](N)CC(C)C)C(=O)N1CCC[C@H]1C(=O)N[C@@H](CCSC)C(=O)N[C@@H](CO)C(=O)N[C@H](C(=O)N1CCC[C@H]1C(=O)N1CCC[C@@H]1C(=O)N[C@@H](CCC(=O)O)C(=O)N[C@H](C(=O)N[C@@H](CC1CCCCC1)C(=O)N[C@@H](Cc1ccccc1)C(=O)N[C@@H](CC(N)=O)C(=O)N[C@@H](CCCCN)C(=O)N1CCC[C@H]1C(=O)N[C@@H](Cc1ccccc1)C(=O)N[C@H](C(=O)N[C@@H](Cc1ccccc1)C(=O)O)C(C)C)C(C)C)[C@@H](C)CC` [VIR-257, LEAIPMSIPpEV(cyclohexylalanine)FNKPFVF] (H-LEAIPMSIP[dP]EV[Cha]FNKPFVF-OH), the IC50 in the assay on X4-tropic HIV-1 NL4-3 turned out to be 860 nM; with HIV-1 NL4-3 DTV, 660 nM.
Turning to `CC[C@H](C)[C@H](NC(=O)[C@H](C)NC(=O)[C@H](CCC(=O)O)NC(=O)[C@@H](N)CC(C)C)C(=O)N1CCC[C@H]1C(=O)N[C@@H](CCSC)C(=O)N[C@@H](CO)C(=O)N[C@H](C(=O)N1CCC[C@H]1C(=O)N1CCC[C@@H]1C(=O)N[C@@H](CCC(=O)O)C(=O)N[C@@H](Cc1cccc2ccccc12)C(=O)N[C@@H](C)C(=O)N[C@@H](Cc1ccccc1)C(=O)N[C@@H](CC(N)=O)C(=O)N[C@@H](CCCCN)C(=O)N1CCC[C@H]1C(=O)N[C@@H](Cc1ccccc1)C(=O)N[C@H](C(=O)N[C@@H](Cc1ccccc1)C(=O)O)C(C)C)[C@@H](C)CC` [VIR-258, LEAIPMSIPpE(1-naphthylalanine)AFNKPFVF] (H-LEAIPMSIP[dP]E[1Nal]AFNKPFVF-OH), the IC50 in the assay with X4-tropic HIV-1 NL4-3 came to 640 nM; in the assay on HIV-1 NL4-3 DTV it was 620 nM.
In the case of `CC[C@H](C)[C@H](NC(=O)[C@H](C)NC(=O)[C@H](CCC(=O)O)NC(=O)[C@@H](N)CC(C)C)C(=O)N1CCC[C@H]1C(=O)N[C@@H](CCSC)C(=O)N[C@@H](CO)C(=O)N[C@H](C(=O)N1CCC[C@H]1C(=O)N1CCC[C@@H]1C(=O)N[C@@H](CCC(=O)O)C(=O)N[C@@H](Cc1ccc(F)cc1)C(=O)N[C@@H](C)C(=O)N[C@@H](Cc1ccccc1)C(=O)N[C@@H](CC(N)=O)C(=O)N[C@@H](CCCCN)C(=O)N1CCC[C@H]1C(=O)N[C@@H](Cc1ccccc1)C(=O)N[C@H](C(=O)N[C@@H](Cc1ccccc1)C(=O)O)C(C)C)[C@@H](C)CC` [VIR-259, LEAIPMSIPpE(p-fluorophenylalanine)AFNKPFVF] (H-LEAIPMSIP[dP]E[Phe(4-F)]AFNKPFVF-OH), the concentration for half-maximal inhibition (IC50) with X4-tropic HIV-1 NL4-3 was found to be 860 nM; in the assay with HIV-1 NL4-3 DTV, 1030 nM.
For `CC[C@H](C)[C@H](NC(=O)[C@H](C)NC(=O)[C@H](CCC(=O)O)NC(=O)[C@@H](N)CC(C)C)C(=O)N1CCC[C@H]1C(=O)N[C@@H](CCSC)C(=O)N[C@@H](CO)C(=O)N[C@H](C(=O)N1CCC[C@H]1C(=O)N1CCC[C@@H]1C(=O)N[C@@H](CCC(=O)O)C(=O)N[C@H](C(=O)N[C@@H](Cc1ccncc1)C(=O)N[C@@H](Cc1ccccc1)C(=O)N[C@@H](CC(N)=O)C(=O)N[C@@H](CCCCN)C(=O)N1CCC[C@H]1C(=O)N[C@@H](Cc1ccccc1)C(=O)N[C@H](C(=O)N[C@@H](Cc1ccccc1)C(=O)O)C(C)C)C(C)C)[C@@H](C)CC` [VIR-260, LEAIPMSIPpEV(4-pyridylalanine)FNKPFVF] (H-LEAIPMSIP[dP]EV[4Pal]FNKPFVF-OH), the IC50 in the assay with X4-tropic HIV-1 NL4-3 was determined as 2150 nM; in the assay with HIV-1 NL4-3 DTV, 2380 nM.
Take `CC[C@H](C)[C@H](NC(=O)[C@H](C)NC(=O)[C@H](CCC(=O)O)NC(=O)[C@@H](N)CC(C)C)C(=O)N1CCC[C@H]1C(=O)N[C@@H](CCSC)C(=O)N[C@@H](CO)C(=O)N[C@H](C(=O)N1CCC[C@H]1C(=O)N1CCC[C@@H]1C(=O)N[C@@H](CCC(=O)O)C(=O)N[C@H](C(=O)N1Cc2ccccc2C[C@H]1C(=O)N[C@@H](Cc1ccccc1)C(=O)N[C@@H](CC(N)=O)C(=O)N[C@@H](CCCCN)C(=O)N1CCC[C@H]1C(=O)N[C@@H](Cc1ccccc1)C(=O)N[C@H](C(=O)N[C@@H](Cc1ccccc1)C(=O)O)C(C)C)C(C)C)[C@@H](C)CC` [VIR-263, LEAIPMSIPpEV(L-Tic)FNKPFVF] (H-LEAIPMSIP[dP]EV[Tic]FNKPFVF-OH): the IC50 with X4-tropic HIV-1 NL4-3 is 770 nM; in the assay on HIV-1 NL4-3 DTV it was 330 nM.
On the same counts, the results for `CC[C@H](C)[C@H](NC(=O)[C@H](C)NC(=O)[C@H](CCC(=O)O)NC(=O)[C@@H](N)CC(C)C)C(=O)N1CCC[C@H]1C(=O)N[C@@H](CCSC)C(=O)N[C@@H](CO)C(=O)N[C@H](C(=O)N1CCC[C@H]1C(=O)N1CCC[C@@H]1C(=O)N[C@@H](CCC(=O)O)C(=O)N[C@H](C(=O)N[C@@H](Cc1csc2ccccc12)C(=O)N[C@@H](Cc1ccccc1)C(=O)N[C@@H](CC(N)=O)C(=O)N[C@@H](CCCCN)C(=O)N1CCC[C@H]1C(=O)N[C@@H](Cc1ccccc1)C(=O)N[C@H](C(=O)N[C@@H](Cc1ccccc1)C(=O)O)C(C)C)C(C)C)[C@@H](C)CC` [VIR-264, LEAIPMSIPpEV(3-benzothienylalanine)FNKPFVF] (H-LEAIPMSIP[dP]EV[Bta]FNKPFVF-OH) are 590 nM and 700 nM.
Take `CC[C@H](C)[C@H](NC(=O)[C@H](C)NC(=O)[C@H](CCC(=O)O)NC(=O)[C@@H](N)CC(C)C)C(=O)N1CCC[C@H]1C(=O)N[C@@H](CCSC)C(=O)N[C@@H](CO)C(=O)N[C@H](C(=O)N1CCC[C@H]1C(=O)N1CCC[C@@H]1C(=O)N[C@@H](CCC(=O)O)C(=O)N[C@H](C(=O)N[C@@H](Cc1ccsc1)C(=O)N[C@@H](Cc1ccccc1)C(=O)N[C@@H](CC(N)=O)C(=O)N[C@@H](CCCCN)C(=O)N1CCC[C@H]1C(=O)N[C@@H](Cc1ccccc1)C(=O)N[C@H](C(=O)N[C@@H](Cc1ccccc1)C(=O)O)C(C)C)C(C)C)[C@@H](C)CC` [VIR-265, LEAIPMSIPpEV(3-thienylalanine)FNKPFVF] (H-LEAIPMSIP[dP]EV[3Thi]FNKPFVF-OH): the IC50 with X4-tropic HIV-1 NL4-3 is 1290 nM; in the assay on HIV-1 NL4-3 DTV, 2210 nM.
Taken in the same sequence, the figures for `CC[C@H](C)[C@H](NC(=O)[C@H](C)NC(=O)[C@H](CCC(=O)O)NC(=O)[C@@H](N)CC(C)C)C(=O)N1CCC[C@H]1C(=O)N[C@@H](CCSC)C(=O)N[C@@H](CO)C(=O)N[C@H](C(=O)N1CCC[C@H]1C(=O)N1CCC[C@@H]1C(=O)N[C@@H](CCC(=O)O)C(=O)N[C@H](C(=O)N[C@@H](Cc1c[nH]c2ccccc12)C(=O)N[C@@H](Cc1ccccc1)C(=O)N[C@@H](CC(N)=O)C(=O)N[C@@H](CCCCN)C(=O)N1CCC[C@H]1C(=O)N[C@@H](Cc1ccccc1)C(=O)N[C@H](C(=O)N[C@@H](Cc1ccccc1)C(=O)O)C(C)C)C(C)C)[C@@H](C)CC` [VIR-266, LEAIPMSIPpEVWFNKPFVF] (H-LEAIPMSIP[dP]EVWFNKPFVF-OH) were 590 nM and 830 nM.
